The structures appear in SMILES notation. Like-named read-outs stand apart in the source and are kept apart here.

For test [1], the target named is T1, CypD K118E/R124A (Homo sapiens, UniProt P30405, K118E/R124A).
T1 construct: made in house; host or cells: E. coli BL21(DE3)
As to the kind of experiment: Chymotrypsin coupled prolyl-isomerase assay. Type of test: biochemical. The essentials: (§1)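 5 nM Cyp, HEPES pH 7.3/NaCl/Triton buffer, 2–3 °C; cpd 5 min, chymotrypsin 25 µM 5 min, then Suc-AAPF-AMC 5 µM in LiCl/TFE. Kinetic fluorescence 330 s. Per-well rate constants, normalized, IC50 from nonlinear fit.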

The target in test [2] is Cyp40 (Homo sapiens, UniProt Q08752). Description: Competition anisotropy binding assay with A26-Fl. Further details: PPID (UniProtKB Entry Q08752: residues 1–183); made in house; host or cells: E. coli BL21(DE3). The settings on record: FP competition with 0.5 nM A26-Fl, 24 h. As to the method:
(§2) Adapted from previous work[52], cyclophilin in assay buffer (25 mM HEPES pH 8.0, 100 mM NaCl, 0.01% Triton X-100) at a pre-determined concentration from Supplementary Table 6 was incubated with 0.5 nM A26-Fl for 10 min at room temperature in a flat-bottom black untreated 96-well plate (Corning). Competitor macrocycle was then added to each well and incubated for 24 h. Final assay volume was 100 µL with 0.25% DMSO. Fluorescence anisotropy was then measured using a Tecan Spark plate reader using 492 nm/523 nm excitation/emission settings.

Test [3] addresses T2, CypE K218A (Homo sapiens, UniProt Q9UNP9, K218A).
T2 construct: Lane 6- GS-CypE K218A (131-301);; His6 tag with thrombin site (pET28a LIC); GS remnant stays on the N-terminus (N, cleaved yes); host or cells: E. coli BL21(DE3)
Description: Chymotrypsin coupled prolyl-isomerase assay. Type of test: biochemical. In outline:
as §1

The target in test [4] is T3, CypE K212A (Homo sapiens, UniProt Q9UNP9, K212A).
T3 construct: Lane 4- GS-CypE K212A (131-301);; His6 tag with thrombin site (pET28a LIC); GS remnant stays on the N-terminus (N, cleaved yes); host or cells: E. coli BL21(DE3)
As to the kind of experiment: Chymotrypsin coupled prolyl-isomerase assay. The following applies: mutant CypE K212A; read-out: Mutant Cyclophilin Prolyl Isomerase Inhibition IC50 Values, CypE K212A. Format: biochemical. The essentials: as §1

The target of test [5] is T4, CypE K217A (Homo sapiens, UniProt Q9UNP9, K217A).
T4 construct: Lane 5- GS-CypE K217A (131-301);; His6 tag with thrombin site (pET28a LIC); GS remnant stays on the N-terminus (N, cleaved yes); host or cells: E. coli BL21(DE3)
Description: Chymotrypsin coupled prolyl-isomerase assay. Format: biochemical. The essentials:
as §1

The target of test [6] is CypD (Homo sapiens, UniProt P30405). As to the kind of experiment: Competition anisotropy binding assay with A26-Fl. Further details: PPIF (UniProtKB Entry P30405: residues 45–207); made in house; host or cells: E. coli BL21(DE3). The following applies: FP competition with 0.5 nM A26-Fl, 24 h. As for the experimental part:
as §2

Test [7] addresses T2, CypE K218A. As to the kind of experiment: Competition anisotropy binding assay with A26-Fl. The following applies: FP competition with 0.5 nM A26-Fl, 24 h. As to the method: as §2
Test [8] has as its target T5, CypB (Homo sapiens, UniProt P23284).
T5 construct: PPIB (UniProtKB Entry P23284: residues 34–216); His6 with TEV site (2BT vector leader) (N); made in house; host or cells: E. coli BL21(DE3)
Description: Competition anisotropy binding assay with A26-Fl. The following applies: FP competition with 0.5 nM A26-Fl, 24 h. As to the method:
as §2

Test [9] concerns the target T6, CypA (Homo sapiens, UniProt P62937).
T6 construct: PPIA (UniProtKB Entry P62937: residues 1–165); made in house; host or cells: E. coli BL21(DE3)
As to the kind of experiment: Competition anisotropy binding assay with A26-Fl. The following applies: FP competition with 0.5 nM A26-Fl, 24 h. As to the method: as §2

Test [10] concerns the target T7, PPIL3 (Homo sapiens, UniProt Q9H2H8).
T7 construct: PPIL3 (UniProtKB Entry Q9H2H8: residues 1–161); His6 tag with TEV site (2BT vector); SNA remnant stays on the N-terminus (N, cleaved yes); made in house; host or cells: E. coli BL21(DE3)
Description: Competition anisotropy binding assay with A26-Fl. The settings on record: FP competition with 0.5 nM A26-Fl, 24 h. As to the method: as §2

In test [11] the target is T3, CypE K212A. Description: Competition anisotropy binding assay with A26-Fl. The following applies: FP competition with 0.5 nM A26-Fl, 24 h. As for the experimental part:
as §2

In test [12] the target is T4, CypE K217A. Description: Competition anisotropy binding assay with A26-Fl. As for the experimental part: as §2
Test [13] concerns the target T8, PPIL1 (Homo sapiens, UniProt Q9Y3C6).
T8 construct: PPIL1 (UniProtKB Entry Q9Y3C6: residues 1–166); made in house; host or cells: E. coli BL21(DE3)
T8 sequence (Q9Y3C6 1-166): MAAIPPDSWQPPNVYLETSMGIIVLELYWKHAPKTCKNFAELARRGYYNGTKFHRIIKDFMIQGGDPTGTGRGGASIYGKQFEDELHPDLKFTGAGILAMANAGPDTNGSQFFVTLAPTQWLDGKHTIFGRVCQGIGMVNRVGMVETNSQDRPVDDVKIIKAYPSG
As to the kind of experiment: Competition anisotropy binding assay with A26-Fl. The settings on record: FP competition with 0.5 nM A26-Fl, 24 h. As for the experimental part:
as §2

T2 sequence (Q9UNP9 131-301 K218A): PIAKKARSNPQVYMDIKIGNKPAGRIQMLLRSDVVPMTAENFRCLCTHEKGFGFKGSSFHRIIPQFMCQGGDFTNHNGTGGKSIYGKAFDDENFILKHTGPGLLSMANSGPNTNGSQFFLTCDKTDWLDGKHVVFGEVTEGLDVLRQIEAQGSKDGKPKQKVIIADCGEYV
T4 sequence (Q9UNP9 131-301 K217A): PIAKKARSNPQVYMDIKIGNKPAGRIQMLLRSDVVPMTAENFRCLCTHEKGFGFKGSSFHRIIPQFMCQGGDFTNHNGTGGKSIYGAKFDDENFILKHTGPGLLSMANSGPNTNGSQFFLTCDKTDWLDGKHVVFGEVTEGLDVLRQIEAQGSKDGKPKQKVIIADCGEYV
T1 sequence (P30405 45-207 K118E/R124A): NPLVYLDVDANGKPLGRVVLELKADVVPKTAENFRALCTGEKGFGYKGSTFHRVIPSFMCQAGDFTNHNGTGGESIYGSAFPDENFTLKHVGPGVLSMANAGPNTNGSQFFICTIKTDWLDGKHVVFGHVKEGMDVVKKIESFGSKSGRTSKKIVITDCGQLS
T3 sequence (Q9UNP9 131-301 K212A): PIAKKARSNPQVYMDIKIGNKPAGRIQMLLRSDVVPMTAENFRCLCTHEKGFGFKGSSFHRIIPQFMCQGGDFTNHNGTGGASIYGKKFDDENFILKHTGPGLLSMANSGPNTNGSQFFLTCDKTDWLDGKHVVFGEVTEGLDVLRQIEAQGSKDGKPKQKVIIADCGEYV
Sequence of CypD (P30405 45-207): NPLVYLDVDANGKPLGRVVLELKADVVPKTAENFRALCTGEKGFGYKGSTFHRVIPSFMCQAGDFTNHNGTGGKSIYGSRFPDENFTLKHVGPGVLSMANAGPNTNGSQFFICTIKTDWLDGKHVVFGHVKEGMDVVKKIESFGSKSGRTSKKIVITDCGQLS
T6 sequence (P62937 whole entry, the tested form may be a part): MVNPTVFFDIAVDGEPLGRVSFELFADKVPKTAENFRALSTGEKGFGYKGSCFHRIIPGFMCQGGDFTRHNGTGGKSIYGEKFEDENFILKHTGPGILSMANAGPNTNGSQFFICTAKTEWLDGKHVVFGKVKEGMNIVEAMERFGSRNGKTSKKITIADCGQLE
Sequence of Cyp40 (Q08752 1-183): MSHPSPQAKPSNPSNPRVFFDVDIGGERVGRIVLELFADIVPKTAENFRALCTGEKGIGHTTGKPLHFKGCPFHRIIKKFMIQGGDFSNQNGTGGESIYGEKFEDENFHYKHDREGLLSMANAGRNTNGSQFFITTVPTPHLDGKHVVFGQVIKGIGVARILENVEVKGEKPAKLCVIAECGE
T7 sequence (Q9H2H8 whole entry, the tested form may be a part): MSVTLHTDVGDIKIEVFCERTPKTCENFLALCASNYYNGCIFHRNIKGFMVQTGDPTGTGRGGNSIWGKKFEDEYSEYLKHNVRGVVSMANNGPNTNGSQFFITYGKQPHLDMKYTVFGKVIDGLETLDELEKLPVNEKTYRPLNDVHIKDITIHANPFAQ
T5 sequence (P23284 34-216): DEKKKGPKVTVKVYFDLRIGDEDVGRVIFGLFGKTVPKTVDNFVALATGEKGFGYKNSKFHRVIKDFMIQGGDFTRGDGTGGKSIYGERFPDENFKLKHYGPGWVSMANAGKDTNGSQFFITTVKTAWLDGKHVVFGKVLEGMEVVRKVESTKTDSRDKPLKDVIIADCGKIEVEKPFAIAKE

`NCCCc1ccc(-c2ccc(C[C@@H]3NC(=O)[C@]4(Cc5ccccc5)CCCN(C4)C(=O)/C=C/C(=O)NCC[C@@H](C(=O)NCCOCCN)NC(=O)Cc4ccccc4CNC3=O)cc2)cc1` [Compound B32]: the “potency improvement on CypD K118E/R124A compared to wild-type CypD” value in [1] is on record as 100 fold. Besides, in test [1] (prolyl-isomerase IC50), the “preference for CypD K118E/R124A over PPWD1” value is “at least 13 fold” and the “selectivity for CypD K118E/R124A over CypA” value is given as greater than 100 fold. Besides, the concentration for half-maximal inhibition (IC50) (as a rule, the concentration that inhibits the measured activity by half) in [1] (prolyl-isomerase inhibition) is 60 nM.
On to `NC(=O)C1CCNC(=O)C=CC(=O)N2CCCC(Cc3ccccc3)(C2)C(=O)NC(Cc2ccc(-c3ccc(C=O)c(B(O)O)c3)cc2)C(=O)NCc2ccccc2CC(=O)N1` (stereo not drawn) [Compound C3A], for which the Ki – broadly, a measure of affinity in units of concentration, obtained from inhibition or displacement – in test [2] is greater than 10 µM; in test [6] it was 520 nM; in test [7], 250 nM; in [8], 5.6 µM; in test [9], 1800 nM; in [10], greater than 10 µM. In addition, the inhibition constant Ki turned out to be 98 nM in test [11] and 1100 nM in test [13]. The IC50 in [3] (mutant CypE K218A, read-out: Mutant Cyclophilin Prolyl Isomerase Inhibition IC50 Values, CypE K218A) was 2000 nM; in [3] (prolyl-isomerase inhibition, read-out: IC50 CypE K218A), 19 ± 3 nM; in [4], 30 nM; in test [5] (mutant CypE K217A, read-out: Mutant Cyclophilin Prolyl Isomerase Inhibition IC50 Values, CypE K217A) it was 19 nM. Besides, in [5], the “less potent at inhibiting K217A prolyl-isomerase activity compared to wild-type CypE” value is recorded as 150 fold. Further, the “less potent at competing A26-Fl from CypE K217A compared to wild-type CypE” value in [12] is recorded as 40 fold.

Source of the values: article PMC9596378, “Discovery and molecular basis of subtype-selective cyclophilin inhibitors” (Nature Chemical Biology, 2022).
